# Key:
# [1] = PAMPA‐GIT; format: in vitro ADME; details: PAMPA-GIT; for Fa exp. / Papp: standard drugs used as control (n = 2); for Classification: standard drugs used as control; for Papp: read-out: Pe experimental
# Description: (§1) The lipid mixture that impregnates the filter has a different constitution for the permeability tests for the BBB (brain lipid from pig extract in n‐dodecane) and the GIT (L‐α soy phosphatidylcholine in n‐dodecane). The optical density values obtained in the reading at each selected wavelength, for each of the compounds, were analyzed in comparison with the values of several controls within a calibration curve (≥ 7 drugs). In the case of the BBB, these values were used to elaborate an equation and determine the permeability coefficient (Pe), while GIT used absorbed fraction (Fa%).
# [2] = PAMPA-GIT, standard drugs; literature value, ref not given; cited from earlier work
# [3] = PAMPA‐BBB; format: in vitro ADME; details: PAMPA-BBB; for Classification: standard drugs used as control
# Description: as §1
SMILES,Fa exp. [1],Fa lit. [2],Classification [3],Classification [1],Papp [1],Pe literature [2],"Papp ([3]; standard drugs used as control (n = 2), read-out: Pe experimental)"
Nc1nc2c(ncn2COCCO)c(=O)[nH]1 [Acyclovir],1.70%,,,,,,
CC(C)NCC(O)COc1ccc(CC(N)=O)cc1 (stereo not shown) [Atenolol],2.26%,5.2%,,,,,
"Cn1c(=O)c2c(ncn2C)n(C)c1=O [Caffeine, reference compound]",,,CNS -,,,,
CO/N=C(\C(=O)N[C@@H]1C(=O)N2C(C(=O)O)=C(CSc3nc(=O)c(=O)[nH]n3C)CS[C@H]12)c1csc(N)n1 [Ceftriaxone],1.37%,1%,,Low (low permeability (0%–29%)),0.67 ×10⁻⁶ cm/s,0.10 10^-6 cm s^-1,
O=C(O)Cc1ccccc1Nc1c(Cl)cccc1Cl [Diclofenac],99.31%,100%,,High (high intestinal permeability (70%–100%)),13.1 ×10⁻⁶ cm/s,12.50 10^-6 cm s^-1,
"CCn1cc(C(=O)O)c(=O)c2cc(F)c(N3CCNCC3)nc21 [Enoxacin, reference compound]",,,CNS +,,,,0.56 ×10⁻⁶ cm/s

# From publication PMC12637173, “Investigation on LASSBio‐1971 and LASSBio‐1974 Cellular Cytotoxic Mechanism and Their Comparative DMPK Profile” (Archiv Der Pharmazie, 2025)
